Usually Ki stands for the dissociation constant of the complex between target and ligand, obtained from inhibition or displacement. A low value points to tighter binding.

Assay [1] concerns E. coli strain MC1061. The assay can be described thus: Duplicate screen of 1000 Maybridge compounds for growth inhibition. Type of assay: cell-based, Escherichia coli. The conditions noted are these: 10 μL of 1 mM compound in 200 μL/well, 36 hours at 37° C., OD 600 nm. How it is done:
In addition to proof of principle work using well-characterized antibiotics a preliminary screen against a 1000 compound, non-proprietary commercial library from Maybridge (Cornwall, England) was also done. First the identification of compounds with activity against E. coli by screening for inhibition of growth was done. […] To each test well 10 μL of screening compound (1 mM in DMSO) was added and the plate incubated for 36 hours at 37° C. with shaking (150 rpm) before reading the optical density (600 nm). […] The result of this duplicate screen was the identification of 15 compounds with statistically significant antibacterial activity.

Assay [2] deals with E. coli strain MC1061. The assay can be described thus: Retest minimum inhibitory concentration on LB-ST agar. The settings on record: Escherichia coli, MC1061, read-out: Retest Minimum Inhibitory Concentration.
Assay [3] has as its system MC1061 transformed with the genomic library (the screening pool). Type of assay: cell-based, Escherichia coli. The settings on record: LB agar-ST; concentration lethal to MC1061.
The test system of a further assay is E. coli MC1061/pGEM7. The assay can be described thus: microbe, parasite or virus in culture. Type of assay: cell-based, Escherichia coli. The conditions noted are these: for MIC: Escherichia coli, MC1061/PGEM7, read-out: MIC, minimum growth inhibitory concentration.
The test system of a further assay is E. coli MC1061. The assay can be described thus: Minimum inhibitory concentration determination in LB broth. The format is cell-based, Escherichia coli.
The test system of assay [4] is E. coli MC1061 harboring a multicopy genomic library cloned into pGEM7. The assay can be described thus: Multicopy suppression selection with the selection pool, Example 5. The format is cell-based, Escherichia coli. The conditions noted are these: LB-Str-Amp agar, 10^5 cells.
Assay [5] has as its system S. cerevisiae DL1 (His, Leu, Ura)/pGAL. The assay can be described thus: MIC of compounds versus yeast. The format is cell-based. The conditions noted are these: Saccharomyces cerevisiae; agar plates, 72 hours, read visually.
The target of assay [6] is T1, E. coli DHFR (Escherichia coli, UniProt P0ABQ4).
T1 construct: The gene was cloned lacking a stop codon into NdeI and XhoI digested pET26b to form pET26b-folA; made in house
The assay can be described thus: Determination of kinetic inhibition constants. Type of assay: biochemical. The conditions noted are these: NADPH 80 μM, dihydrofolate 10 to 300 μM, competitive inhibition.

The target in assay [7] is T1, E. coli DHFR. The assay can be described thus: DHF reductase activity assay of recombinant E. coli DHFR (decrease of NADPH at 340 nm); primary screen and IC50 determination. The format is biochemical. The conditions noted are these: true competitive inhibitor should equal 2.8.
Assay [8] concerns E. coli MC1061 clones harboring pGEM7-acrB. The format is cell-based, Escherichia coli. The settings on record: from MIC in LB-Str-Amp, relative to E. coli MC1061 containing pGEM7.
In assay [9] the test system is E. coli CW2553 containing pAK01 and pBAD18-folA (strain EB492). The settings on record: increasing DHFR expression from pBAD18-folA.
Setting [10] is: Escherichia coli, MC1061, 16 hr at 37° C., OD600 less than 0.1, read-out: MIC.
Where [11] appears, read: 16 hr at 37° C., OD600 less than 0.1.

SMILES strings stand for the structures. Converted amounts (≈) assume the structure as drawn. Read-outs that look alike come from different tables or passages of the source.

As for `N#CC(C#N)=NNc1cc(C(F)(F)F)cc(C(F)(F)F)c1` [SEW04978], in the assay with E. coli strain MC1061 [1], the “Growth in Primary Screens, first value of the duplicate” value (shortened to “Growth in Primary Screens, first value”) was 0.2% and the “Growth in Primary Screens, second value of the duplicate” value (from here on “Growth in Primary Screens, second value”) turned out to be 0.02%. In addition, the MIC in the assay with E. coli strain MC1061 [2] stood at 32 µg/mL (≈ 105 µM). Moreover, in assay [3], the “growth inhibitory concentration to which clones isolated from the screening pool were resistant” value worked out at 64 µg/mL.

In the case of `Nc1nc(-c2ccc(-n3cccc3)cc2)cc(C(F)(F)F)n1` [BTB14887], in the assay with E. coli strain MC1061 [1], the “Growth in Primary Screens, first value” value was determined as 37% and the “Growth in Primary Screens, second value” value is given as 30%. For the same molecule, the MIC in the assay with E. coli strain MC1061 [2] amounted to 125 µg/mL (≈ 411 µM).

Consider `COc1cc(Cc2cnc(N)nc2N)cc(OC)c1OC` [Trimethoprim], for which the MIC in the assay on E. coli MC1061/pGEM7 stood at 0.078 µg/mL (≈ 0.269 µM); in the assay with E. coli MC1061 (setting [10]), 0.03 µg/mL (≈ 0.103 µM). Also, the “MIC, minimum growth inhibitory concentration” value with E. coli MC1061/pGEM7 (LB agar containing ampicillin (50 μg/mL) and streptomycin (50 μg/mL)) was 0.078 µg/mL (≈ 0.269 µM). The “concentration at which suppressor clones were evident” value in assay [4] amounted to 0.64 µg/mL.

Regarding `O=C(Oc1c(Cl)cc(Cl)c2cccnc12)c1cccs1` [RH00852], in the assay with E. coli strain MC1061 [1], the “Growth in Primary Screens, first value” value amounted to 2.7% and the “Growth in Primary Screens, second value” value came out at 2.8%. In the assay on E. coli strain MC1061 [2], the MIC came to 16 µg/mL (≈ 49.4 µM).

As for `Cc1ccc(Sc2cccc3nc(N)nc(N)c23)cc1` [Compound 1], in the assay with E. coli MC1061 (setting [10]), the MIC came to 8 µg/mL (≈ 28.3 µM).

`Nc1nc(N)c2c(Oc3ccc(F)cc3)cccc2n1` [Compound 3]: the MIC in the assay on E. coli MC1061 (setting [10]) was 16 µg/mL (≈ 59.2 µM).

With `C[C@@H]1O[C@@H]1P(=O)(O)O` [Fosfomycin], in the assay with E. coli MC1061/pGEM7, the MIC came to 80 µg/mL (≈ 579 µM). Further, the “growth inhibitory concentration to which clones isolated from the screening pool were resistant” value in assay [3] is 320 µg/mL.

With `OC(Cn1cncn1)(Cn1cncn1)c1ccc(F)cc1F` [Fluconazole], the MIC in [5] turned out to be 32 µg/mL.

With `Clc1ccc(Cc2n[nH]cc2Sc2ccc(Cl)cc2)cc1` [SPB04137], in the assay with E. coli strain MC1061 [1], the “Growth in Primary Screens, first value” value is on record as 2.3% and the “Growth in Primary Screens, second value” value stood at 2.1%. In addition, in the assay on E. coli strain MC1061 [2], the MIC came to 500 µg/mL (≈ 1490 µM).

As for `N[C@@H]1CON=C1O` [Cycloserine, D-cycloserine], the MIC in the assay on E. coli MC1061/pGEM7 was determined as 80 µg/mL (≈ 784 µM). Also, in assay [3], the “growth inhibitory concentration to which clones isolated from the screening pool were resistant” value was determined as 160 µg/mL.

Regarding `CC1CCc2c(N)nc(N)nc2C1` (stereo not drawn) [Compound 6], the MIC in the assay on E. coli MC1061 (setting [10]) is 64 µg/mL (≈ 359 µM). The same molecule had a Ki on E. coli DHFR [6] of 1.1 µM. At E. coli DHFR [7], the “IR, IC50 ratio (IC50 in the presence of 100 μM DHF) / (IC50 in the presence of 30 μM DHF)” value was determined as 2.3. For the same molecule, the “fold suppression by pGEM7-acrB” value in assay [8] was found to be 4 fold.

Take `CSC(=N)NC(=S)Nc1cccc(Cl)c1` [RJF01047]: in the assay with E. coli strain MC1061 [1], the “Growth in Primary Screens, first value” value is reported as 6.0% and the “Growth in Primary Screens, second value” value amounted to 12%. Also, the MIC in the assay on E. coli strain MC1061 [2] turned out to be 125 µg/mL (≈ 481 µM).

In the case of `Nc1nc(N)c2c(Sc3ccc(Cl)cc3)cccc2n1` [Compound 2], the MIC in the assay with E. coli MC1061 (setting [11]) is 4.0 µg/mL (≈ 13.2 µM); in the assay with E. coli MC1061 (setting [10]) it was 4 µg/mL (≈ 13.2 µM).

For `Cc1ccc(Oc2cccc3nc(N)nc(N)c23)cc1` [Compound 4], the MIC against E. coli MC1061 (setting [11]) stood at 4.0 µg/mL (≈ 15 µM); with E. coli MC1061 (setting [10]), 4 µg/mL (≈ 15 µM). The “dependence of the MIC on arabinose (inducer) concentration” value in assay [9] is “demonstrated an inducer dependence”.
